Reference: patent EP0427799B1, “METHOD AND COMPOUNDS FOR AICA RIBOSIDE DELIVERY AND FOR LOWERING BLOOD GLUCOSE” (GENSIA, INC., priority 1989, dated 1990)
“And” between values parts separate entries of the source, which are not always exact repeats. Equal entries are not always repeated.

Tests used:
lactate and pyruvate = test: Blood lactate and pyruvate in rats; assay type: in vivo
Description: (§1) AICA riboside (100, 250 or 500 mg/kg) or saline (as a control) was administered intraperitoneally to rats. Sixty minutes after AICA riboside administration, the rats were sacrificed by cervical dislocation. Blood glucose was determined spectrophotometrically measuring O.D. at 340 nm by the hexokinase method using the glucose SR Reagent (Medical Analysis Systems, Inc.) Blood lactate and pyruvate were determined spectrophotometrically measuring O.D. at 340 nm using lactate dehydrogenase in the presence of excess NAD or NADH, respectively.

insulin [1] = test: Plasma insulin levels in humans; assay type: in vivo; details: human subjects; precedes the drop in blood glucose
Description: Human (male) volunteers were given a 15-minute intravenous infusion of 50 mg/kg AICA riboside. Plasma concentrations of immunoreactive insulin was determined by RIA during and following the administration for about 4 hours. (RIA kit, Amersham Clinical).

plasma glucose = test: Plasma glucose levels in non-fasted and fasted mice; assay type: in vivo, mice (Swiss-Webster); details: for reduced glucose levels: fasted mice (16 hours)
Description: Ribose is known to lower blood glucose in several animal species, including man, in relatively high doses (on the order of about 1000 mg/kg) by an unknown mechanism, possibly by inhibition of phosphoglucomutase. […] Initial studies were performed using non-fasted rats (Sprague Dawley) and mice (Swiss-Webster).
Male mice (Swiss-Webster) were injected IP with the indicated treatment. […] Ribose and AICA riboside were formulated in saline. Glucose levels were measured on plasma (heparinized blood centrifuged at 10,000 X g for ten minutes). Glucose levels were measured one hour after AICA riboside administration.

skin flap = test: Protection against ischemic injury in skin flap model; assay type: in vivo, rats; details: skin flap viability 3 days post-surgery; pretreatment 45 minutes before surgery (SOD at time of surgery)
Description: Compounds were tested for their activity in protecting against ischemic injury in a skin flap model in rats.
Animals were pretreated with AICA riboside or AICA riboside plus adenosine deaminase (ADA) 45 minutes before surgery or, as a positive control, superoxide dismutase (SOD) was used at the time of surgery. A skin flap was raised on the abdomen of a rat for 6 hours and then sewn down. The percent viability of the flaps was evaluated at 3 days post-surgery.
This effect was not as pronounced in the presence of ADA, supporting the importance of adenosine's protective role in this setting.

infarct size = test: Rat models of focal brain ischemia (partial and total reperfusion); assay type: in vivo; details: 800 mg/kg IP
Description: The claimed prodrugs, by delivering AICA riboside should provide similar efficacy. […] Both intracerebroventricular (ICV) and IP administration of AICA riboside was effective in the gerbil model In addition to the gerbil, two different rat models of focal ischemia were also used to evaluate AICA-riboside. One model employed partial reperfusion and the second total reperfusion.

adenosine kinase = adenosine kinase (Homo sapiens, UniProt P55263); test: Inhibition of adenosine kinase; assay type: biochemical
triglycerides = test: Plasma triglyceride levels in diabetic rats, chronic treatment; assay type: in vivo; details: streptozotocin-induced diabetes in rats
Description: Rats were made diabetic by treatment with streptozocin (50 mg/kg IV) and then treated with either saline or AICA riboside (500 mg/kg, twice a day) for 22 days. Plasma triglyceride levels were analyzed 18 hours after the last injection of AICA riboside using the Sigma Procedure #334 Assay Kit (coupled assay employing lipase, glycerokinase, pyruvate kinase and lactate dehydrogenase) which measures decreases in OD₃₄₀ over time (NADH disappearance).

insulin [2] = test: Blood insulin levels in rats; assay type: in vivo; details: high doses, early time points
Description: This leads to investigation of the mechanism of AICA riboside induced hypoglycemia. […] This adenosine induced hyperglycemia is reversed by adenosine receptor antagonists (theophylline and sulphophenyltheophylline). Additionally, the AICA riboside-induced hypoglycemia is not blocked by theophylline. It is therefore concluded that the AICA riboside effect on plasma glucose is not mediated by adenosine. […] (See Figure 13).

Blood Glucose [3] = test: Effect on blood glucose in rabbits (hexokinase procedure); assay type: in vivo, Rabbits (New Zealand White); details: for Blood Glucose Change(+/-): 2H post-dose vs pre-dose; for Blood Glucose Change(+/-) / Blood Glucose 2H Post-Dose: individual rabbits
Description: Rabbits (New Zealand White) were given IV doses of AICA riboside, either 2 ml/kg (100 mg/kg) or 4 ml/kg (200 mg/kg). Blood was obtained by venipuncture before AICA riboside administration and two hours post-administration. Blood glucose concentrations before administration and two hours post-administration were measured by the hexokinase procedure (see Example K). The percent change (+/-) from pre-dose values are reported. Both dosage levels decreased blood glucose levels as compared with pre-AICA riboside administration levels.
as §1

Blood glucose [4] = test: Hypoglycemic effects of oral AICA riboside prodrugs; assay type: in vivo, mice (Swiss Webster); details: equimolar amounts
Description: Male mice (Swiss Webster) were given equimolar amounts of either saline, AICA riboside, or compounds C1 or 10 of Table I orally. Blood glucose levels were measured one hour after administration by the glucose strip method (Chemstrip B.G.).

[5] = 2ml (100 mg/kg) IV, rabbit 10 not included

Sequence of adenosine kinase (P55263 whole entry, species assumed): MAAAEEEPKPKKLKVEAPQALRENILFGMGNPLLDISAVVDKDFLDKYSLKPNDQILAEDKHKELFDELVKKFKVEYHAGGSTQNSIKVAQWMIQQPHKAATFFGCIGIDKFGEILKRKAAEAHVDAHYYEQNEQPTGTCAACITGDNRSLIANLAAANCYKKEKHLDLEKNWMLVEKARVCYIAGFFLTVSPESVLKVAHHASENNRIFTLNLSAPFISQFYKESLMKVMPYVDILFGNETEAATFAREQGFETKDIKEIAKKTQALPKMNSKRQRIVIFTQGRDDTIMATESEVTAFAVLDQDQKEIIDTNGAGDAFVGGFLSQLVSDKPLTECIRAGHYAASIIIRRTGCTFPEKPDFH

SMILES: NC(=O)c1ncn([C@@H]2O[C@H](CO)[C@@H](O)[C@H]2O)c1N [AICA riboside, 1-β-D-ribofuranosyl-5-aminoimidazole-4-carboxamide]
- lactate to pyruvate ratio (lactate and pyruvate): not changed
- liver glycogen, serum lactate and pyruvate (lactate and pyruvate): elevation of liver glycogen and of serum lactate and pyruvate
- serum insulin levels (insulin [1]): significant elevations of serum insulin levels
- doses that may cause seizures (plasma glucose; fasted mice): ≥ 500 mg/kg
- duration of reduced plasma glucose levels (plasma glucose; fasted mice (2 hours), 500 mg/Kg): 2 to 3 h
- reduced glucose levels (plasma glucose; 250 mg/Kg): 50%
- reduced glucose levels (plasma glucose; 500 and 750 mg/Kg): 60%
- decrease of glucose levels (plasma glucose; non-fasted mice, 750 mg/Kg): 30-50%
- % Viable (skin flap): 75%
- infarct size (infarct size): highly significant reduction in infarct size
- inhibition of adenosine kinase (adenosine kinase): weak inhibitor
- serum triglycerides (triglycerides): lowers serum triglycerides
- blood insulin levels (insulin [2]): suppress blood insulin levels
- Blood Glucose Change(+/-) (Blood Glucose [3]; 2ml (100 mg/kg) IV): -25 mg% and +102* mg% and -24 mg% (2×) and -28 mg% and +10 mg% and -22 mg% and -23 mg% and -11 mg% and -53 mg%
- Blood Glucose 2H Post-Dose (Blood Glucose [3]; 2ml (100 mg/kg) IV): 93 mg% and 215* mg% and 87 mg% and 89 mg% (2×) and 122 mg% and 96 mg% and 98 mg% and 106 mg% and 99 mg%
- Blood Glucose 2H Post-Dose, Mean (Blood Glucose [3]; [5]): 98 mg%
- Blood Glucose Change(+/-), Mean (Blood Glucose [3]; [5]): -22 mg%
- Blood Glucose Change(+/-) (Blood Glucose [3]; 4ml (200mg)/kg IV): -14 mg% and -76 mg% and -42 mg% and -69 mg% and -59 mg%
- Blood Glucose 2H Post-Dose (Blood Glucose [3]; 4ml (200mg)/kg IV): 100 mg% and 32** mg% and 79 mg% and 56 mg% and 62 mg%
- Blood Glucose 2H Post-Dose, Mean (Blood Glucose [3]; 4ml (200mg)/kg IV): 66 mg%
- Blood Glucose Change(+/-), Mean (Blood Glucose [3]; 4ml (200mg)/kg IV): -52 mg%
- hypoglycemia after oral administration (Blood glucose [4]): did not produce detectable hypoglycemia
